From PubChem BioAssay (NCI)
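Growth conditions: 96-well plates. Treatment: test compound, 48 hours, 5 concentrations. Analysis: linear interpolation between bracketing concentrations; unreached endpoints set to highest concentration. GI50 is the concentration that inhibits growth by half. TGI is the concentration that stops growth completely.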

Legend:
Test in all cases: NCI anticancer screen, dose series, 48 h
[1] = tested on: ACHN renal
[2] = tested on: SNB-19 CNS
[3] = tested on: HS 578T breast
[4] = tested on: OVCAR-4 ovarian
[5] = tested on: HL-60(TB) leukemia
[6] = tested on: BT-549 breast
[7] = tested on: NCI-H522 lung
[8] = tested on: CCRF-CEM leukemia
[9] = tested on: HOP-62 NSCLC
[10] = tested on: KM12 colon
[11] = tested on: OVCAR-3 ovarian
[12] = tested on: PC-3 prostate
[13] = tested on: OVCAR-8 ovarian
[14] = tested on: LOX IMVI melanoma
[15] = tested on: UACC-62 melanoma
[16] = tested on: SW-620 colon
[17] = tested on: UO-31 renal
[18] = tested on: A498 renal
[19] = tested on: DU-145 prostate
[20] = tested on: SR leukemia
[21] = tested on: SK-MEL-28 melanoma
[22] = tested on: HT29 colon
[23] = tested on: NCI-H23 lung
[24] = tested on: SK-MEL-2 melanoma
[25] = tested on: TK-10 renal
[26] = tested on: OVCAR-5 ovarian
[27] = tested on: SN12C renal
[28] = tested on: SF-268 CNS
[29] = tested on: MDA-MB-435
[30] = tested on: HCT-15 colon
[31] = tested on: MDA-MB-231 breast
[32] = tested on: HCC-2998 colon
[33] = tested on: HOP-92 NSCLC
[34] = tested on: A549 NSCLC
[35] = tested on: SF-295 CNS
[36] = tested on: SF-539 CNS
[37] = tested on: SK-OV-3 ovarian
[38] = tested on: CAKI-1 renal
[39] = tested on: U251 CNS
[40] = tested on: MCF7 breast
[41] = tested on: SK-MEL-5 melanoma
[42] = tested on: MOLT-4 leukemia
[43] = tested on: SNB-75 CNS
[44] = tested on: T-47D breast
[45] = tested on: COLO 205 colon
[46] = tested on: K-562 leukemia
[47] = tested on: HCT-116 colon
[48] = tested on: RPMI-8226 leukemia
[49] = tested on: NCI/ADR-RES ovarian
[50] = tested on: MALME-3M melanoma
[51] = tested on: NCI-H460 lung
[52] = tested on: NCI-H226 lung
[53] = tested on: 786-0 renal
[54] = tested on: UACC-257 melanoma
[55] = tested on: EKVX NSCLC
[56] = tested on: IGROV1 ovarian
[57] = tested on: RXF 393 renal

Question: Which results are given for `CSC1=Nc2c(c(C)c(-c3ccccc3)n2COC(CO)CO)C2=NC(=O)C(C)N12` (centres undefined)?
Answer: GI50 [1]: > 100 µM; TGI [1]: > 100 µM; GI50 [2]: > 100 µM; TGI [2]: > 100 µM; GI50 [3]: > 100 µM; TGI [3]: > 100 µM; GI50 [4]: > 100 µM; TGI [4]: > 100 µM; GI50 [5]: 3.69 µM; TGI [5]: > 100 µM; GI50 [6]: > 100 µM; TGI [6]: > 100 µM; GI50 [7]: > 100 µM; TGI [7]: > 100 µM; GI50 [8]: > 100 µM; TGI [8]: > 100 µM; GI50 [9]: > 100 µM; TGI [9]: > 100 µM; GI50 [10]: > 100 µM; TGI [10]: > 100 µM; GI50 [11]: > 100 µM; TGI [11]: > 100 µM; GI50 [12]: > 100 µM; TGI [12]: > 100 µM; GI50 [13]: > 100 µM; TGI [13]: > 100 µM; GI50 [14]: > 100 µM; TGI [14]: > 100 µM; GI50 [15]: 70.1 µM; TGI [15]: > 100 µM; GI50 [16]: > 100 µM; TGI [16]: > 100 µM; GI50 [17]: > 100 µM; TGI [17]: > 100 µM; GI50 [18]: > 100 µM; TGI [18]: > 100 µM; GI50 [19]: > 100 µM; TGI [19]: > 100 µM; GI50 [20]: 4.07 µM; TGI [20]: > 100 µM; GI50 [21]: > 100 µM; TGI [21]: > 100 µM; GI50 [22]: > 100 µM; TGI [22]: > 100 µM; GI50 [23]: > 100 µM; TGI [23]: > 100 µM; GI50 [24]: > 100 µM; TGI [24]: > 100 µM; GI50 [25]: > 100 µM; TGI [25]: > 100 µM; GI50 [26]: > 100 µM; TGI [26]: > 100 µM; GI50 [27]: > 100 µM; TGI [27]: > 100 µM; GI50 [28]: > 100 µM; TGI [28]: > 100 µM; GI50 [29]: > 100 µM; TGI [29]: > 100 µM; GI50 [30]: > 100 µM; TGI [30]: > 100 µM; GI50 [31]: > 100 µM; TGI [31]: > 100 µM; GI50 [32]: > 100 µM; TGI [32]: > 100 µM; GI50 [33]: > 100 µM; TGI [33]: > 100 µM; GI50 [34]: > 100 µM; TGI [34]: > 100 µM; GI50 [35]: > 100 µM; TGI [35]: > 100 µM; GI50 [36]: > 100 µM; TGI [36]: > 100 µM; GI50 [37]: > 100 µM; TGI [37]: > 100 µM; GI50 [38]: > 100 µM; TGI [38]: > 100 µM; GI50 [39]: > 100 µM; TGI [39]: > 100 µM; GI50 [40]: > 100 µM; TGI [40]: > 100 µM; GI50 [41]: > 100 µM; TGI [41]: > 100 µM; GI50 [42]: 29.6 µM; TGI [42]: > 100 µM; GI50 [43]: 48.5 µM; TGI [43]: > 100 µM; GI50 [44]: > 100 µM; TGI [44]: > 100 µM; GI50 [45]: > 100 µM; TGI [45]: > 100 µM; GI50 [46]: > 100 µM; TGI [46]: > 100 µM; GI50 [47]: > 100 µM; TGI [47]: > 100 µM; GI50 [48]: > 100 µM; TGI [48]: > 100 µM; GI50 [49]: > 100 µM; TGI [49]: > 100 µM; GI50 [50]: > 100 µM; TGI [50]: > 100 µM; GI50 [51]: > 100 µM; TGI [51]: > 100 µM; GI50 [52]: > 100 µM; TGI [52]: > 100 µM; GI50 [53]: > 100 µM; TGI [53]: > 100 µM; GI50 [54]: > 100 µM; TGI [54]: > 100 µM; GI50 [55]: > 100 µM; TGI [55]: > 100 µM; GI50 [56]: 26.5 µM; TGI [56]: > 100 µM; GI50 [57]: > 100 µM; TGI [57]: > 100 µM
